This is an account of results in ChEMBL document CHEMBL1124228, “Synthesis of (aryloxy)alkylamines. 1. Novel antisecretory agents with H+K+-ATPase inhibitory activity” (J Med Chem, 1988).

Assay [1] concerns Rattus norvegicus. Put plainly: Percent inhibition of total acid secretion in pylorus-ligated rats at an id dose of 20 mg/kg. The assay is classed as functional. As to conditions: route intraduodenal.
Assay [2] deals with T1, Potassium-transporting ATPase (Homo sapiens, UniProt P20648). As to the kind of experiment: Antisecretory activity evaluated by the inhibition of 14C -AP uptake in isolated rabbit parietal cells stimulated by dibutyryl cyclic adenosine 3', 5' -monophosphate (dcAMP). The format is functional, Oryctolagus cuniculus. To be noted: target entry is the homologue from another species.

The target in assay [3] is T1, Potassium-transporting ATPase. As to the kind of experiment: Antisecretory activity evaluated by the inhibition of 14C -AP uptake in isolated rabbit parietal cells stimulated by exogenous histamine. The assay is classed as functional, Oryctolagus cuniculus. As to conditions: target entry is the homologue from another species.
Assay [4] has as its system Rattus norvegicus. Put plainly: Percent inhibition of total acid secretion in pylorus-ligated rats at an id dose of 40 mg/kg. The assay is classed as functional. To be noted: route intraduodenal.

SMILES strings stand for the structures.

Usually inhibition in vivo stands for the drop in the measured response relative to a control, in per cent. A higher inhibition in vivo goes with a strong effect. A word on the IC50: it is the concentration at which inhibition is half-maximal. In the assay on Rattus norvegicus [1], `CCCCN(CCCC)CCCOc1ccc(-c2csc(-c3ccc(OC)cc3)n2)cc1` gave an inhibition in vivo at 20 mg/kg of 4%. The results for the IC50 in assay [2] and in assay [3] were 230 nM and 480 nM, respectively.
In the case of `c1ccc(-c2nc(-c3ccc(OCCCCn4ccnc4)cc3)cs2)cc1`, the half-inhibitory concentration (IC50) was found to be 310 nM in assay [2] and 820 nM in assay [3]. The same compound displayed an inhibition in vivo at 40 mg/kg in the assay with Rattus norvegicus [4] of 31%.
Compound `CCCCN(CCCC)CCCOc1ccc(-c2csc(-c3ccc(Cl)cc3)n2)cc1` had an inhibition in vivo at 20 mg/kg in the assay on Rattus norvegicus [1] of 40%. Further, the results for the IC50 in assay [2] and in assay [3] were 1800 nM and 2100 nM, respectively.
Regarding `CCCCN(CCCC)CCCOc1ccc(-c2csc(-c3cc(OC)cc(OC)c3)n2)cc1`, in the assay on Rattus norvegicus [1], the inhibition in vivo at 20 mg/kg is 17%. Further, the IC50 in assay [2] was determined as 540 nM; in assay [3] it was 260 nM.
As to `CCCCN(CCCC)CCCOc1ccc(-c2nc3ccccc3s2)cc1`, the IC50 was 2600 nM in assay [2] and 250 nM in assay [3].
Take `CCN(CC)CCCOc1ccc(-c2csc(-c3ccccc3)n2)cc1`: the IC50 in assay [2] turned out to be 90 nM; in assay [3] it was 120 nM. In the assay on Rattus norvegicus [4], this compound displayed an inhibition in vivo at 40 mg/kg of 82%.
In turn, `C(=C\c1nc2ccccc2o1)/c1ccc(OCCCCCn2ccnc2)cc1` displayed an inhibition in vivo at 20 mg/kg in the assay with Rattus norvegicus [1] of 45%. Also, the IC50 in assay [2] amounted to 230 nM; in assay [3], 280 nM.
As for `CCCCN(CCCC)CCOc1ccc(-c2csc(-c3ccccc3)n2)cc1`, the inhibition in vivo at 20 mg/kg in the assay on Rattus norvegicus [1] turned out to be 41%. The IC50 in assay [2] came to 350 nM; in assay [3], 310 nM.
Compound `CCCCN(CCCC)CCCOc1ccc(/C=C/c2nc3ccc(OC)cc3s2)cc1` displayed an inhibition in vivo at 20 mg/kg in the assay with Rattus norvegicus [1] of 31%. The results for the IC50 in assay [2] and in assay [3] were 460 nM and 260 nM, respectively.
The corresponding values for `FC(F)(F)c1ccc(-c2nc(-c3ccc(OCCCn4ccnc4)cc3)cs2)cc1` are 27%, 620 nM and 370 nM.
`CCCCN(CCCC)CCCOc1ccc(-c2csc(-c3ccc(C)cc3)n2)cc1` gave an inhibition in vivo at 20 mg/kg with Rattus norvegicus [1] of 41%. The IC50 stood at 3000 nM in assay [2] and 1500 nM in assay [3].
With `CCCCN(CCCC)CCCOc1ccc(/C=C/c2nc3ccccc3s2)cc1`, the inhibition in vivo at 20 mg/kg with Rattus norvegicus [1] came out at 40%. For the same compound, the results for the half-inhibitory concentration (IC50) in assay [2] and in assay [3] were 260 nM and 250 nM, respectively.
In the assay on Rattus norvegicus [1], `CCCCN(CCCC)CCCOc1ccc(/C=C/c2nc3cc(Cl)ccc3s2)cc1` gave an inhibition in vivo at 20 mg/kg of 26%. Besides, the IC50 in assay [2] came to 500 nM; in assay [3] it was 400 nM.
Turning to `CCCCN(CCCC)CCCOc1ccc(/C=C/c2nc3ccccc3[nH]2)cc1`, in the assay on Rattus norvegicus [1], the inhibition in vivo at 20 mg/kg is 2.8%. Moreover, the IC50 in assay [2] is 1500 nM; in assay [3], 2300 nM.
Turning to `CCCCN(CCCC)CCCOc1ccc(/C=C/c2nc3cc(C)ccc3o2)cc1`, the IC50 turned out to be 340 nM in assay [2] and 260 nM in assay [3]. Moreover, the inhibition in vivo at 40 mg/kg in the assay on Rattus norvegicus [4] is 88%.
`CCCN(CCC)CCCOc1ccc(-c2csc(-c3ccccc3)n2)cc1`: the IC50 is 180 nM in assay [2] and 230 nM in assay [3]. At 40 mg/kg the inhibition in vivo with Rattus norvegicus [4] was 94%.
`CCCCN(CCCC)CCCOc1ccc(/C=C/c2nc3ccccc3n2C)cc1`: in the assay with Rattus norvegicus [1], the inhibition in vivo at 20 mg/kg was 1.6%. The results for the IC50 in assay [2] and in assay [3] were 2600 nM and 800 nM, respectively.
In turn, `CCN(CC)CCCCOc1ccc(/C=C/c2nc3ccccc3o2)cc1` registered an inhibition in vivo at 20 mg/kg in the assay with Rattus norvegicus [1] of 31%. Moreover, the IC50 in assay [2] is 120 nM; in assay [3] it was 80 nM.
`C(=C\c1nc2ccccc2s1)/c1ccc(OCCCN2CCCCC2)cc1` displayed an inhibition in vivo at 20 mg/kg in the assay with Rattus norvegicus [1] of 32%. Further, the IC50 in assay [2] was found to be 210 nM; in assay [3], 180 nM.
In turn, `CCCCN(CCCC)CCCOc1ccc(-c2csc(C)n2)cc1` returned an inhibition in vivo at 20 mg/kg in the assay with Rattus norvegicus [1] of 8%. Further, the results for the IC50 in assay [2] and in assay [3] were 8400 nM and 1500 nM, respectively.
For `CCCCN(CCCC)CCCOc1ccc(/C=C/c2nc3cc(C)ccc3s2)cc1`, the inhibition in vivo at 20 mg/kg in the assay on Rattus norvegicus [1] came to 14%. Also, the values for the 50% inhibitory concentration (IC50) in assay [2] and in assay [3] were 530 nM and 290 nM, respectively.
`C(=C\c1nc2ccccc2s1)/c1ccc(OCCCn2ccnc2)cc1` came in with an inhibition in vivo at 20 mg/kg in the assay on Rattus norvegicus [1] of 22%. Also, the IC50 in assay [2] is 340 nM; in assay [3] it was 130 nM.
`CCN(CC)CCCCOc1ccc(/C=C/c2nc3ccccc3s2)cc1`: testing at 20 mg/kg in the assay with Rattus norvegicus [1] gave an inhibition in vivo of 52%. The IC50 in assay [2] stood at 350 nM; in assay [3], 180 nM.
Turning to `CCCCN(CCCC)CCCOc1ccc(-c2csc(-c3ccc(C(F)(F)F)cc3)n2)cc1`, the IC50 in assay [2] turned out to be 2000 nM; in assay [3], 2900 nM. This compound also registered an inhibition in vivo at 40 mg/kg in the assay on Rattus norvegicus [4] of 40%.
In the same order, the values of `CCCCN(CCCC)CCCOc1ccc(/C=C/c2nc3ccc(OC)cc3o2)cc1` are 50 nM, 80 nM and 64%.
As to `CCCCN(CCCC)CCCOc1ccc(-c2nc(-c3ccccc3)sc2CC)cc1`, the IC50 in assay [2] stood at 240 nM; in assay [3] it was 340 nM.
Consider `CCN(CC)CCCOc1ccc(/C=C/c2nc3ccccc3s2)cc1`, for which the IC50 in assay [2] amounted to 150 nM; in assay [3] it was 370 nM. Moreover, the inhibition in vivo at 40 mg/kg in the assay with Rattus norvegicus [4] amounted to 71%.
As for `CCN(CC)CCCOc1ccc(/C=C/c2nc3ccccc3o2)cc1`, the values for the IC50 in assay [2] and in assay [3] were 980 nM and 320 nM, respectively. Also, in the assay on Rattus norvegicus [4], the inhibition in vivo at 40 mg/kg amounted to 54%.
Consider `CCCCN(CCCC)CCCOc1ccc(-c2nc3ccccc3[nH]2)cc1`, for which the IC50 in assay [2] worked out at 1200 nM; in assay [3], 1800 nM. Also, in the assay on Rattus norvegicus [4], at 40 mg/kg the inhibition in vivo was 24%.
On to `CCCCN(CCCC)CCCOc1ccc(-c2csc(-c3cccnc3)n2)cc1`, for which testing at 20 mg/kg with Rattus norvegicus [1] gave an inhibition in vivo of 19%. The results for the IC50 in assay [2] and in assay [3] were 880 nM and 1650 nM, respectively.
In turn, `CCCCN(CCCC)CCOc1ccc(/C=C/c2nc3ccccc3o2)cc1` displayed an inhibition in vivo at 20 mg/kg in the assay with Rattus norvegicus [1] of 43%. The half-inhibitory concentration (IC50) in assay [2] is 540 nM; in assay [3] it was 260 nM.
In the assay with Rattus norvegicus [1], `CCCN(CCC)CCCOc1ccc(/C=C/c2nc3ccccc3o2)cc1` returned an inhibition in vivo at 20 mg/kg of 77%. Also, the results for the IC50 in assay [2] and in assay [3] were 350 nM and 220 nM, respectively.
In turn, `c1cncc(-c2nc(-c3ccc(OCCCn4ccnc4)cc3)cs2)c1` yielded an inhibition in vivo at 20 mg/kg with Rattus norvegicus [1] of 53%. Further, the IC50 was 3000 nM in assay [2] and 3300 nM in assay [3].
In turn, `CCCCN(CCCC)CCCCOc1ccc(-c2csc(-c3ccccc3)n2)cc1` gave an inhibition in vivo at 20 mg/kg with Rattus norvegicus [1] of 56%. Further, the IC50 in assay [2] stood at 120 nM; in assay [3] it was 130 nM.
Turning to `C(=C\c1nc2ccccc2o1)/c1ccc(OCCCCn2ccnc2)cc1`, 20 mg/kg produced 14% inhibition in vivo in the assay with Rattus norvegicus [1]. Besides, the values for the IC50 in assay [2] and in assay [3] were 330 nM and 270 nM, respectively.
The compound `C(=C\c1nc2ccccc2o1)/c1ccc(OCCCCN2CCCCC2)cc1` came in with an inhibition in vivo at 20 mg/kg in the assay on Rattus norvegicus [1] of 42%. For the same compound, the IC50 turned out to be 330 nM in assay [2] and 170 nM in assay [3].
In turn, `CCCCN(CCCC)CCCCCOc1ccc(-c2csc(-c3ccccc3)n2)cc1` displayed an inhibition in vivo at 20 mg/kg in the assay with Rattus norvegicus [1] of 54%. Besides, the results for the IC50 in assay [2] and in assay [3] were 860 nM and 490 nM, respectively.
The corresponding values for `c1ccc(-c2nc(-c3ccc(OCCCN4CCCCC4)cc3)cs2)cc1` are 46%, 50 nM and 110 nM.
`C(=C\c1nc2ccccc2s1)/c1ccc(OCCCCN2CCCC2)cc1` gave an inhibition in vivo at 20 mg/kg in the assay with Rattus norvegicus [1] of 20%. The IC50 in assay [2] came to 260 nM; in assay [3], 160 nM.
